Results on 22 molecules are retold here after patent publication US20030134848A1, “Substituted 1-aza-2-imino-heterocycles and their use as nicotinic acetylcholin receptors activators” (priority 2000, published 2003).

Like-named read-outs stand apart in the source and are kept apart here.

The term Ki denotes the equilibrium dissociation constant of an inhibitor or competing ligand from its target.

Assay [1] addresses α1β1γδ subtype of nicotinic acetylcholine receptors (Rattus norvegicus, UniProt P18916+P25108+P25110). Briefly: biochemical. Type of assay: binding. The settings on record: for Ki: read-out: Affinities for receptors Ki α1β1γδ, rat muscle extract, [3H]-α-Bgt 1 nM; for remaining activity at 100 µM / remaining activity at 1000 µM: read-out: control % of [3H]-α-Bgt binding. The text has this: (§1) The methods for evaluating the binding capabilities of the compounds at nicotinic acetylcholine receptors are different by subtypes of receptors. The binding capabilities of the compounds at α4β2 nicotinic acetylcholine receptors are examined using rat brain membrane obtained from whole homogenized brain, and determining the inhibiting rate of the compounds against [^3H]-cytisine binding to said brain membrane. Furthermore, the binding capabilities of the compounds at α1β1γδ nicotinic acetylcholine receptors are examined using homogenized rat muscle, and determining the inhibiting rate of the compounds against [^3H]-α-bungarotoxin binding to said muscle homogenate.
The affinity of the compounds of the present invention to α1β1γδ subtype of nicotinic acetylcholine receptors was measured by the following method, which was modified method described by Garcha H. S., Thomas P., Spivak C. E., Wonnacott S. & Stolerman I. P., Psychropharmacology, 110, 347-354 (1993).
(1) Preparation of Rat Skeletal Muscles Containing α1β1γδ Subtype of Nicotinic Acetylcholine Receptors
The substantially same animals described in the Biological Experiment 1 were used.
The isolation of α1β1γδ subtype of nicotinic acetylcholine receptors was performed as follow. That is, rat posterior skeletal muscles were isolated just after sacrificed by decapitation, washed with ice-cooled saline solution and then frozen at −80° C. with liquid nitrogen and stored till using. After thawing the frozen muscles, tissue was homogenized (40% w/v) with buffer solution [2.5 mM of sodium phosphate buffer (pH:7.2), 90 mM of NaCl, 2 mM of KCl, 1 mM of EDTA, 2 mM of benzamidine, 0.1 mM of benzethonium chloride, 0.1 mM of PMSF, 0.01% of sodium azide] in Waring blender (Waring blender 34BL97; WARING PRODUCTS DIVISION DYNAMICS CORPORATION OF AMERICA) for 60 seconds. The homogenate were centrifuged under 20,000×G for 60 minutes at 4° C. The supernatant was separated and the resulting pellet was added to the same buffer (1.5 ml/g wet weight), and homogenized under the same conditions. Triton X100 (2% w/v) was added and the mixture was stirred for 3 hours at 4° C. The centrifugation at 100,000×G for 60 minutes at 4° C. yielded the rat muscle extract as supernatant. This was stored at 4° C. for up to 4 weeks, and used for binding assays at receptors.
(2) Experiments of α1β1γδ Subtype of Nicotinic Acetylcholine Receptors Binding
Receptors binding experiments were performed as follow. That is, the extract of rat muscle containing 600-900 μg of protein was added to test tubes containing test compounds and incubated for 15 minutes at 37° C. Then, to this mixture was added 1 nM of [^3H]-α-bungarotoxin (α-Bgt) and further incubated for 2 hours. The samples were isolated by vacuum filtration onto Whatman GF/B filters, which were prerinsed with 0.5% polyethylenimine just prior to sample filtration, using Brandel multi manifold cell harvester. The filters were rapidly rinsed with washing solution (10 mM of KH2PO4, 150 mM of NaCl, pH 7.2, room temperature) (5×1 ml). The filters were counted in 3 ml of clearsol I (Nacalai Tesque Inc.). The determination of nonspecific binding was incubated in the presence of 1 μM α-Bgt. The solutions containing α-Bgt (labeled/non-labeled) were prepared by using buffer solution containing 0.25% of BSA. In the receptor binding experiments, said buffer solution was added for adjusting the final concentration of BSA to be 0.05%.
The analyses of the experimental results were conducted by the same way as described in the Biological Experiment 1.

The target of assay [2] is T1, α4β2 subtype of nicotinic acetylcholine receptors (Rattus norvegicus, UniProt P09483+P12390).
T1 construct: rat brain membrane obtained from whole homogenized brain; from tissue; host or cells: whole brain of Fischer-344 male rats, membrane fraction
T1 sequence (P09483 31-630): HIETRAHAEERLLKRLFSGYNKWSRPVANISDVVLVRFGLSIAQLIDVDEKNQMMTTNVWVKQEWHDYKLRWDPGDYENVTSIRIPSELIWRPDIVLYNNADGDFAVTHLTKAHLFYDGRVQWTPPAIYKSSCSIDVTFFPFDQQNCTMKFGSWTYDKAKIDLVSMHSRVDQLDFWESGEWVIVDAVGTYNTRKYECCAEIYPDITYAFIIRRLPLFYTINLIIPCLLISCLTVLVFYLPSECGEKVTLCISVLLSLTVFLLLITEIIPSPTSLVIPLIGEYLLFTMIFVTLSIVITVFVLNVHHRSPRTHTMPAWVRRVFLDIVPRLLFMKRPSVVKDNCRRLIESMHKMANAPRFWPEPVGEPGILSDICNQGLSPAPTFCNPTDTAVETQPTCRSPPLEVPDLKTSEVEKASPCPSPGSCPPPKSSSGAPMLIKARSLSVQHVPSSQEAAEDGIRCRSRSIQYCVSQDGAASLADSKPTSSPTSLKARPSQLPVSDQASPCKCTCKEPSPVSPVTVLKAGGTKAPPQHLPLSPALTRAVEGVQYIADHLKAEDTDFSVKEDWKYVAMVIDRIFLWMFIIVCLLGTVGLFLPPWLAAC
T1 sequence (P12390 25-500): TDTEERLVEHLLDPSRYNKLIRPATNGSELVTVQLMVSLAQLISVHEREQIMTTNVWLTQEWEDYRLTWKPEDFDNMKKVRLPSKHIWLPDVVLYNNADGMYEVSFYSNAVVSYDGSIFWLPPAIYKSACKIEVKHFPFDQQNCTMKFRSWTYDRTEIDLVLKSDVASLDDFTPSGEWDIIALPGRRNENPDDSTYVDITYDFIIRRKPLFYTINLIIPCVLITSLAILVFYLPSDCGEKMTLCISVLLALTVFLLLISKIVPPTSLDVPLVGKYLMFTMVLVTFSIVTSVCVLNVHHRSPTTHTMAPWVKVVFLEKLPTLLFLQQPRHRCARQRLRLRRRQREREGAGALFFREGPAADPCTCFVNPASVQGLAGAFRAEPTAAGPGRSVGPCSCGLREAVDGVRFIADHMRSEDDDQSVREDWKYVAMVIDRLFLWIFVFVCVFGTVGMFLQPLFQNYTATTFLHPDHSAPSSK
Briefly: Binding assay at α4β2 subtype of nicotinic acetylcholine receptors ([3H]-cytisine, rat brain membrane). Conditions: for remaining activity at 1 µM / remaining activity at 10 µM: read-out: control % of [3H]-cytisine binding.
Description: as §1
The affinity of the compounds of the present invention to α4β2 subtype of nicotinic acetylcholine receptors was performed by the following method, which was modified method described by Pabreza L. A., Dhawan S. & Kellar K. J., Mol. Pharm., 39, 9-12 (1990), and by Anderson D. J. & Arneric S. P., Eur. J. Pharm., 253, 261-267 (1994).
(1) Preparation of Rat Brain Membrane Containing α4β2 Subtype of Nicotinic Acetylcholine Receptors
Fischer-344 strain male rats (body weight: 200-240 g; 9 weeks old) obtained from Charles River Japan were used. Rats were housed in the breeding cage controlled of the room temperature at 23±1° C., and the humidity of 55±5% for 1 to 4 weeks. Rats (3 to 4 rats per a cage) were housed with lights on for 12 hours daily (from 7:00 to 19:00), and allowed free access to food and water.
Preparation of rat brain membrane containing α4β2 subtype of nicotinic acetylcholine receptors was performed as follow. That is, rat brains were isolated just after sacrificed by decapitation, washed with ice-cooled saline solution and then frozen at −80° C. with liquid nitrogen and stored till using. After thawing the frozen brain, the brain was homogenized in 10 volumes of ice-cooled buffer solution (50 mM of Tris-HCl, 120 mM of NaCl, 5 mM of KCl, 1 mM of MgCl2, 2 mM of CaCl2; pH 7.4; 4° C.) using homogenizer (HG30, Hitachi Kohki Ltd.) for 30 seconds, and the homogenate were centrifuged under 1,000×G for 10 minutes at 4° C. The resulting supernatant was separated and the pellet was homogenized again with half volume of aforementioned prior buffer solution and centrifuged under the same conditions. Combined supernatant was further centrifuged under 40,000×G for 20 minutes at 4° C. The pellet was suspended in buffer solution and used for binding assays at receptors.
(2) Experiments of α4β2 Subtype of Nicotinic Acetylcholine Receptors Binding
Suspensions of membrane pellets containing 400-600 μg of protein were added to test tubes containing test compounds and [^3H]-cytisine (2 nM) in a final volume of 200 μl and incubated for 75 minutes in ice-cooled bath. The samples were isolated by vacuum filtration onto Whatman GF/B filters, which were prerinsed with 0.5% polyethylenimine just prior to sample filtration, using Brandel multi manifold cell harvester. The filters were rapidly washed with buffer solution (3×1 ml). The filters were counted in 3 ml of clearsol I (Nacalai Tesque Inc.).
The analyses of the experimental results were conducted by using the Accufit Competition Program (Beckman Ltd.).

Setting [3] is: 1 μM of test compound, rat brain membrane.
Where [4] appears, read: 10 μM of test compound, rat brain membrane.

Sequence of α1β1γδ subtype of nicotinic acetylcholine receptors (P25109 24-501): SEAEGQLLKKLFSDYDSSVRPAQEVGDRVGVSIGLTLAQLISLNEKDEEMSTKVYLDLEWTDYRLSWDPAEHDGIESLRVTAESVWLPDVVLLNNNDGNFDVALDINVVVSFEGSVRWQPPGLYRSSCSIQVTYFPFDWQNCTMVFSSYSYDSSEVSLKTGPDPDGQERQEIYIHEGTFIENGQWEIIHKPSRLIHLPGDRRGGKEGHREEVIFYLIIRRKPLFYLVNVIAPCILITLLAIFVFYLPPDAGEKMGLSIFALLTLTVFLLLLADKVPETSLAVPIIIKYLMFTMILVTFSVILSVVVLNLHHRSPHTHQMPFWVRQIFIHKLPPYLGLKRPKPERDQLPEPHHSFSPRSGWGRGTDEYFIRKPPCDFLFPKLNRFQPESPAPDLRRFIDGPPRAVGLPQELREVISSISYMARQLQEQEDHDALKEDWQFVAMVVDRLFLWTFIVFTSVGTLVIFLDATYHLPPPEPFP
Sequence of α1β1γδ subtype of nicotinic acetylcholine receptors (P25110 22-517): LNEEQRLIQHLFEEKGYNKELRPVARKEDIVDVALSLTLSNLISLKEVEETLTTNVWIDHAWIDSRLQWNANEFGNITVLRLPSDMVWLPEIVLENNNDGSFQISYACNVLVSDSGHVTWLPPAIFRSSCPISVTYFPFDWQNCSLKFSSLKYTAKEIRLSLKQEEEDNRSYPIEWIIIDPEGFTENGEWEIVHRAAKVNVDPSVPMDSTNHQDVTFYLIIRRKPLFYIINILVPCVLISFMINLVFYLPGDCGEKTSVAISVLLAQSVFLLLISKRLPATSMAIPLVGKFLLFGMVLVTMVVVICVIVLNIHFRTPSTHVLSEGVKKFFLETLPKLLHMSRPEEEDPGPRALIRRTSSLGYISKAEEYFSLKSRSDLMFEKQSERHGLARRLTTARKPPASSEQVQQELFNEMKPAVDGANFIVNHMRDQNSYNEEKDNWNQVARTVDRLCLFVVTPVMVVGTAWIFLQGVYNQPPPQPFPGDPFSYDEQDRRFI
Sequence of α1β1γδ subtype of nicotinic acetylcholine receptors (P25108 21-457): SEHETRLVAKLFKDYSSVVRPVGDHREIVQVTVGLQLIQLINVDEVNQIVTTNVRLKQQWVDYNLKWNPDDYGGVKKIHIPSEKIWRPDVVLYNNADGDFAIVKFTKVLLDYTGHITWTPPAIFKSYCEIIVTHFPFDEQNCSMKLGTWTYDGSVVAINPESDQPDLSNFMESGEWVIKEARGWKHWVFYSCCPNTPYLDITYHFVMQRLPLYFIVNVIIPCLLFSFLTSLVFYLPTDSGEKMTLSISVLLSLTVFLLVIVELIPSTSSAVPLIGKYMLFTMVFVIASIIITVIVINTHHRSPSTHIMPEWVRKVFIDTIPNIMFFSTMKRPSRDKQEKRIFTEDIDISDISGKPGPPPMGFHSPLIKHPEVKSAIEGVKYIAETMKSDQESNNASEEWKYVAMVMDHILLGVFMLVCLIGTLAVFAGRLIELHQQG
Sequence of α1β1γδ subtype of nicotinic acetylcholine receptors (P18916 23-519): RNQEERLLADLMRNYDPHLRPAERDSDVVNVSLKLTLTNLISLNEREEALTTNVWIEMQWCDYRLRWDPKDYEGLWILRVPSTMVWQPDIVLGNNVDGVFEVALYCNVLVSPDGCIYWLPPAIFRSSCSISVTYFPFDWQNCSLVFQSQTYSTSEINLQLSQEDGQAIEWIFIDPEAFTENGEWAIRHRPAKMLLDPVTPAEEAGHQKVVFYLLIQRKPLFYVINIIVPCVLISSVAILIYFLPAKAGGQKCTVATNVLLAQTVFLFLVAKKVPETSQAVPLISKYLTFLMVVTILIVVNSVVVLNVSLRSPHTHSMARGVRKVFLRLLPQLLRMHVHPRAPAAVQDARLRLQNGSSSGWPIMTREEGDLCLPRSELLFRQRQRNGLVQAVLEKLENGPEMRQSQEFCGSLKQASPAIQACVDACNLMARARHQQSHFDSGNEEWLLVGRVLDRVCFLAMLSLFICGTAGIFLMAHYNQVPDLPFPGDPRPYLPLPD

Regarding `CN1CCCC1c1cccnc1` (single isomer, unassigned; (-)) [Nicotine, (−)-nicotine, reference compound], in assay [1], the Ki was 182 µM.

As to `N=C1SCCN1CC(=O)c1ccccc1` [Compound 1, 2-imino-3-phenacylthiazolidine], in assay [2] (setting [3]), the remaining activity at 1 µM is 93%. The remaining activity at 10 µM in assay [2] (setting [4]) turned out to be 68%.

Take `CC(=O)Cn1ccsc1=N` [Compound 2, 3-acetonyl-2-imino-2,3-dihydrothiazole]: the remaining activity at 1 µM in assay [2] (setting [3]) came to 107%. Moreover, the remaining activity at 10 µM in assay [2] (setting [4]) came to 101%.

For `N=c1ncccn1CCc1ccc(Cl)nc1` [Compound 3, 1-[2-(6-chloro-3-pyridyl)ethyl]-2-imino-1,2-dihydropyrimidine], in assay [1], the remaining activity at 100 µM stood at 72% and the remaining activity at 1000 µM came to 39%. In assay [2], the remaining activity at 1 µM is 72% and the remaining activity at 10 µM was determined as 17%.

With `Cc1csc(=N)n1CCc1ccc(Cl)nc1` [Compound 4, 3-[2-(6-chloro-3-pyridyl)ethyl]-2-imino-4-methyl-2,3-dihydrothiazole], the results for the Ki in assay [1] and in assay [2] were 10 µM and 0.0056 µM, respectively.

On to `N=C1SCCN1CCc1ccc(Cl)nc1` [Compound 5, 3-[2-(6-chloro-3-pyridyl)ethyl]-2-iminothiazolidine], for which the Ki in assay [1] came out at 34 µM; in assay [2], 0.0048 µM.

Take `Cc1cn(CCc2ccc(Cl)nc2)c(=N)s1` [Compound 6, 3-[2-(6-chloro-3-pyridyl)ethyl]-2-imino-5-methyl-2,3-dihydro-thiazole]: in assay [1], the remaining activity at 100 µM turned out to be 82% and the remaining activity at 1000 µM is 61%. Also, in assay [2], the remaining activity at 1 µM amounted to 77% and the remaining activity at 10 µM was determined as 35%.

As to `Nc1nccn1CCc1ccc(Cl)nc1` [Compound 7, 2-amino-1-[2-(6-chloro-pyridyl)ethyl]imidazole], the values for the Ki in assay [1] and in assay [2] were 184 µM and 0.0049 µM, respectively.

Regarding `N=C1SCCN1CC(=O)c1ccc(Cl)nc1` [Compound 8, 1-(6-chloro-3-pyridyl)-2-(2-imino-3-thiazolidinyl)-1-ethanone], the Ki in assay [1] turned out to be 1830 µM; in assay [2], 0.062 µM.

`N=C1SCCN1CC(O)c1ccc(Cl)nc1` (centres unmarked) [Compound 9, 1-(6-Chloro-3-pyridyl)-2-(2-imino-3-thiazolidinyl)-1-ethanol]: in assay [1], the remaining activity at 100 µM amounted to 72% and the remaining activity at 1000 µM is 35%. Also, in assay [2], the remaining activity at 1 µM was 97% and the remaining activity at 10 µM was 43%.

As to `Cc1sc(=N)n(CCc2ccc(Cl)nc2)c1C` [Compound 10, 3-[2-(6-chloro-3-pyridyl)ethyl]-2-imino-4,5-dimethyl-2,3-dihydrothiazole], the Ki in assay [1] came to 215 µM; in assay [2], 0.051 µM.

As to `N=c1ccc(Cl)nn1CCc1ccc(Cl)nc1` [Compound 15, 6-chloro-2-[2-(6-chloro-3-pyridyl)ethyl]-3-imino-2,3-dihydropyridazine], in assay [1], the remaining activity at 100 µM is 93% and the remaining activity at 1000 µM was 61%. In assay [2], the remaining activity at 1 µM was 60% and the remaining activity at 10 µM came out at 12%.

On to `N=c1ccccn1CCc1ccc(Cl)nc1` [Compound 16, 1-[2-(6-chloro-3-pyridyl)ethyl]-2-imino-1,2-dihydropyridine], for which the Ki in assay [1] was determined as 227 µM; in assay [2], 0.061 µM.

In the case of `Nc1nccn1CCc1ccc(Cl)cc1` [Compound 17, 2-amino-1-[2-(4-chlorophenyl)ethyl]imidazole], in assay [1], the remaining activity at 100 µM amounted to 83% and the remaining activity at 1000 µM turned out to be 67%. In addition, the remaining activity at 1 µM in assay [2] (setting [3]) was 97%. Moreover, in assay [2] (setting [4]), the remaining activity at 10 µM came out at 78%.

As for `CC(Cn1ccsc1=N)c1ccc(Cl)nc1` (centres unmarked) [Compound 18, 3-[2-(6-chloro-3-pyridyl)propyl]-2-imino-2,3-dihydrothiazole], the Ki came out at 173 µM in assay [1] and 0.084 µM in assay [2].

As to `Nc1nccn1CCc1ccccn1` [Compound 19, 2-amino-1-[2-(2-pyridyl)ethyl]imidazole], in assay [1], the remaining activity at 100 µM is 106% and the remaining activity at 1000 µM was determined as 86%. Moreover, the remaining activity at 1 µM in assay [2] (setting [3]) came out at 103%. For the same molecule, the remaining activity at 10 µM in assay [2] (setting [4]) amounted to 106%.

For `Nc1nccn1CCc1ccncc1` [Compound 20, 2-amino-1-[2-(4-pyridyl)ethyl]imidazole], in assay [1], the remaining activity at 100 µM was determined as 109% and the remaining activity at 1000 µM was 90%. For the same molecule, in assay [2] (setting [3]), the remaining activity at 1 µM is 97%. Besides, in assay [2] (setting [4]), the remaining activity at 10 µM is 95%.

With `Cc1nc(N)n(CCc2ccc(Cl)nc2)c1C` [Compound 21, 2-amino-1-[2-(6-chloro-3-pyridyl)ethyl]-4,5-dimethylimidazole], the Ki worked out at 175 µM in assay [1] and 0.097 µM in assay [2].

Regarding `N=c1sccn1CCc1ccc(Cl)nc1` [Compound 22, 3-[2-(6-chloro-3-pyridyl)ethyl]-2-imino-2,3-dihydrothiazole], the Ki in assay [1] was determined as 132 µM; in assay [2], 0.0074 µM.

As to `N=c1sccn1CCc1cnc(Cl)s1` [Compound 24, 3-[2-(2-chloro-5-thiazolyl)ethyl]-2-imino-2,3-dihydrothiazole], the figures for the Ki in assay [1] and in assay [2] were 58 µM and 0.035 µM, respectively.

On to `Nc1nccn1CCc1ccc(O)cc1` [Compound 26, 2-amino-1-[2-(4-hydroxyphenyl)ethyl]imidazole], for which, in assay [1], the remaining activity at 100 µM was 81% and the remaining activity at 1000 µM is 50%. The remaining activity at 1 µM in assay [2] (setting [3]) came out at 93%. The remaining activity at 10 µM in assay [2] (setting [4]) is 60%.

Take `Cc1cncc(CCn2ccsc2=N)c1` [Compound 28, 2-imino-3-[2-(5-methyl-3-pyridyl)ethyl]-2,3-dihydrothiazole]: the Ki came out at 94 µM in assay [1] and 0.027 µM in assay [2] (rat brain membrane, [3H]-cytisine 2 nM, read-out: Affinities for receptors Ki α4β2).
